Reference: patent US20090082328A1, “Substituted phenylamino-benzene derivatives useful for treating hyper-proliferative disorders and diseases associated with mitogen extracellular kinase activity” (Bayer Schering Pharma Aktiengesellschaft, priority 2007, published 2009)

Legend:
[1] = phase I/II clinical trials in humans, literature [19]; cited from earlier work
colon cancer = conditions: oral treatment, mouse models, literature [18]; cited from earlier work
MEK1 = target: T1, MEK1 (Homo sapiens, UniProt Q02750); assay: MEK1 Activation Kinase Assay (Cot1, HTRF); assay type: biochemical; conditions: activation of GST-MEK1 by Cot1
T1 construct: purchased Millipore 14-420
T1 sequence (Q02750 whole entry): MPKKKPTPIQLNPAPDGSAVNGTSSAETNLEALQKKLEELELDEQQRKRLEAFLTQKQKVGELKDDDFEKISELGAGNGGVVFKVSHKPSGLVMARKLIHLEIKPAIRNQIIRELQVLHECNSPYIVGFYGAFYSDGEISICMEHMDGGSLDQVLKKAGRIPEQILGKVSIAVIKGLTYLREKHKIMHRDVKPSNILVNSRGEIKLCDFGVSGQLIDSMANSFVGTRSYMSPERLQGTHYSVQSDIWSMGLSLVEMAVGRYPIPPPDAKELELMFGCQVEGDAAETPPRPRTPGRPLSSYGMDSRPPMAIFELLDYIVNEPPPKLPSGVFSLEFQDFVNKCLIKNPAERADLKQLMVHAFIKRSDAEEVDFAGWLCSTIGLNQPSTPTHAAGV
Method: The kinase Cot1 activates MEK1 by phosphorylating its activation loop. The inhibitory activity of compounds of the present invention on this activation of MEK1 was quantified employing the HTRF assay described in the following paragraphs.
As substrate for the kinase reaction the unactive C-terminally His6-tagged GST-MEK1 fusion protein (Millipore cat. no 14-420) was used.
630 (Sigma), 5 mM β-phospho-glycerol] were added and the mixture was incubated for 10 min at 22° C. to allow pre-binding of the test compounds to the GST-MEK1 before the start of the kinase reaction. Then the kinase reaction was started by the addition of 2 μl of a solution of Cot1 in assay buffer and the resulting mixture was incubated for a reaction time of 20 min at 22° C. The concentration of Cot1 in the assay was adjusted depending of the activity of the enzyme lot and was chosen appropriate to have the assay in the linear range, typical enzyme concentrations were in the range of about 2 ng/μl (final conc. in the 5 μl assay volume). […] The resulting mixture was incubated 2 h at 22° C. to allow the binding of the phosphorylated GST-MEK1 to the anti-GST-XL665 and the Eu-cryptate labelled anti-phospho-MEK 1/2 antibody. Subsequently the amount of Ser217/Ser221-phosphorylated substrate was evaluated by measurement of the resonance energy transfer from the Eu-Cryptate-labelled anti-phospho-MEK antibody to the anti-GST-XL665.

| Structure (SMILES) | IC50 (MEK1) [nM] | other results |
| --- | --- | --- |
| O=C(NOCC1CC1)c1ccc(F)c(F)c1Nc1ccc(I)cc1Cl [PD184352] |  | clinical efficacy [1]: insufficient efficacy; colon cancer growth in vivo (colon cancer): inhibit colon cancer growth |
| NC(=O)c1c(Nc2ccc(I)cc2F)cc(F)cc1Oc1cccc(N)c1 [Example 4.1, 2-(3-Amino-phenoxy)-4-fluoro-6-(2-fluoro-4-iodo-phenylamino)-benz-amide] | < 250 |  |
| NC(=O)c1c(Nc2ccc(I)cc2F)cc(F)cc1Oc1cccc(NS(N)(=O)=O)c1 [Example 6.7, 2-[3-[[(amino)sulfonyl]amino]phenoxy]-4-fluoro-6-[(2-fluoro-4-iodophenyl)amino]-benzamide] | < 250 |  |
| CC(C)(O)C(O)CCOc1cc(F)cc(Nc2ccc(I)cc2F)c1C(N)=O (stereo not shown) [Example 7.1, 2-(3,4-Dihydroxy-4-methyl-pentyloxy)-4-fluoro-6-(2-fluoro-4-iodo-phe-nylamino)-benzamide] | < 250 |  |
| CN(C)S(=O)(=O)Nc1cccc(Oc2cc(F)cc(Nc3ccc(I)cc3F)c2C#N)c1 [Example 2.1, N′-[3-[2-cyano-5-fluoro-3-[(2-fluoro-4-iodophenyl)amino]phenoxy]phenyl]-N,N-dimethyl-sulfamide] | < 1000 |  |
| NC(=O)c1c(Nc2ccc(I)cc2F)cc(F)cc1OCC[C@@H](O)CN1CCOCC1 [Example 10.6, 4-Fluoro-2-(2-fluoro-4-iodo-phenylamino)-6-((R)-3-hydroxy-4-morpholin-4-yl-butoxy)-benzamide] | < 250 |  |
| CCCNS(=O)(=O)Nc1cccc(Oc2cc(F)cc(Nc3ccc(I)cc3F)c2C(N)=O)c1 [Example 6.3, 2-[3-[[(propylamino)sulfonyl]amino]phenoxy]-4-fluoro-6-[(2-fluoro-4-iodophenyl)amino]-benzamide] | < 250 |  |
| C#Cc1ccc(Nc2cc(F)cc(Oc3cccc(NS(=O)(=O)NCCC)c3)c2C(N)=O)c(F)c1 [Example 9.5, 2-[3-[[(propylamino)sulfonyl]amino]phenyoxy]-4-fluoro-6-[(4-ethynyl-2-fluorophenyl)amino]-benzamide] | < 250 |  |
| CNC(=O)c1c(Nc2ccc(I)cc2F)cc(F)cc1OCC[C@@H](O)CO [Example 12.8, 2-((R)-3,4-Dihydroxy-butoxy)-4-fluoro-6-(2-fluoro-4-iodo-phenylamino)-N-methyl-benzamide] | < 250 |  |
| Cn1cnc(S(=O)(=O)NCCCOc2cc(F)cc(Nc3ccc(I)cc3F)c2C(N)=O)c1 [Example 6.17, 4-Fluoro-2-(2-fluoro-4-iodo-phenylamino)-6-[3-(1-methyl-1H-imidazole-4-sulfonylamino)-propoxy]-benzamide] | < 250 |  |
| C#Cc1ccc(Nc2cc(F)cc(Oc3cccc(NS(=O)(=O)N(C)C)c3)c2C(N)=O)c(F)c1 [Example 9.4, 2-[3-[[(dimethylamino)sulfonyl]amino]phenyoxy]-4-fluoro-6-[(4-ethynyl-2-fluorophenyl)amino]-benzamide] | < 250 |  |
| NC(=O)c1c(Nc2ccc(I)cc2F)cc(F)cc1OCCC1CCCCN1 (stereo not shown) [Example 4.5, 4-Fluoro-2-(2-fluoro-4-iodo-phenylamino)-6-(2-piperidin-2-yl-ethoxy)-benzamide] | < 250 |  |
| NC(=O)c1c(Nc2ccc(I)cc2F)cc(F)cc1Oc1cccc(N2CCCS2(=O)=O)c1 [Example 6.6, 2-[3-(1,1-Dioxo-1λ^6-isothiazolidin-2-yl)-phenoxy]-4-fluoro-6-(2-fluoro-4-iodo-phenylamino)-benzamide] | < 250 |  |
| CS(=O)(=O)N1CCCC(COc2cc(F)cc(Nc3ccc(I)cc3F)c2C(N)=O)C1 (stereo not shown) [Example 6.15, 4-Fluoro-2-(2-fluoro-4-iodo-phenylamino)-6-(1-methanesulfonyl-piperidin-3-ylmethoxy)-benzamide] | < 1000 |  |
| NC(=O)c1c(Nc2ccc(I)cc2F)cc(F)cc1OCC1CNC1 [Example 4.6, 2-(Azeitidn-3-ylmethoxy)-4-fluoro-6-(2-fluoro-4-iodo-phenylamino)-benzamide] | < 250 |  |
| NC(=O)c1c(Nc2ccc(I)cc2F)cc(F)cc1OCCCNS(=O)(=O)c1ccccc1 [Example 6.11, 2-(3-Benzene-sulfonylamino-propoxy)-4-fluoro-6-(2-fluoro-4-iodo-phenylamino)-benzamide] | < 250 |  |
| CS(=O)(=O)Nc1cccc(Oc2cc(F)cc(Nc3ccc(I)cc3F)c2C(N)=O)c1 [Example 6.1a, 4-Fluoro-2-(2-fluoro-4-iodo-phenylamino)-6-(3-methanesulfonylamino-phenoxy)-benzamide] | < 250 |  |
| NC(=O)c1c(Nc2ccc(I)cc2F)cc(Cl)cc1OCC[C@@H](O)CO [Example 11.3, 4-Chloro-2-((R)-3,4-dihydroxy-butoxy)-6-(2-fluoro-4-iodo-phenylamino)-benzamide] | < 1000 |  |
| NC(=O)c1c(Nc2ccc(I)cc2F)cc(F)cc1O[C@@H]1C[C@@H](O)[C@@H](O)C1 [Example 7.7] | < 250 |  |
| NC(=O)c1c(Nc2ccc(I)cc2F)cc(F)cc1OC[C@H](O)[C@@H](O)CO [Example 3.8, 4-Fluoro-2-(2-fluoro-4-iodo-phenylamino)-6-((2S,3S)-2,3,4-trihydroxy-butoxy)-benzamide] | < 250 |  |
| CS(=O)(=O)N1CCCCC1CCOc1cc(F)cc(Nc2ccc(I)cc2F)c1C(N)=O (stereo not shown) [Example 6.22, 4-Fluoro-2-(2-fluoro-4-iodo-phenylamino)-6-[2-(1-methanesulfonyl-piperidin-2-yl)-ethoxy]-benzamide] | < 1000 |  |
| NC(=O)c1c(Nc2ccc(Br)cc2F)cc(F)cc1OCC[C@@H](O)CO [Example 8.4, 2-(4-Bromo-2-fluoro-phenylamino)-6-((R)-3,4-dihydroxy-butoxy)-4-fluoro-benzamide] | < 1000 |  |
| NC(=O)c1c(Nc2ccc(I)cc2F)cc(F)cc1OCCCN1CCCC1=O [Example 3.3, 4-Fluoro-2-(2-fluoro-4-iodo-phenylamino)-6-[3-(2-oxo-pyrrolidin-1-yl)-propoxy]-benzamide] | < 250 |  |
| NC(=O)c1c(Nc2ccc(I)cc2F)cc(F)cc1Oc1ccccc1 [Example 5.2, 4-Fluoro-2-(2-fluoro-4-iodo-phenylamino)-6-phenoxy-benzamide] | < 250 |  |
| NC(=O)c1c(Nc2ccc(I)cc2F)cc(F)cc1Oc1ccc2c(c1)S(=O)(=O)CO2 [Example 5.1, 2-(3,3-Dioxo-2,3-dihydro-3λ^6-benzo[1,3]oxathiol-5-yloxy)-4-fluoro-6-(2-fluoro-4-iodo-phenylamino)-benzamide] | < 1000 |  |
| NC(=O)c1c(Nc2ccc(I)cc2F)cc(F)cc1OCCc1cccnc1 [Example 3.5, 4-Fluoro-2-(2-fluoro-4-iodo-phenylamino)-6-(2-pyridin-3-yl-ethoxy)-benzamide] | < 250 |  |
| C#Cc1ccc(Nc2cc(F)cc(OCC[C@@H](O)CO)c2C(N)=O)c(F)c1 [Example 9.1, 2-((R)-3,4-Dihydroxy-butoxy)-6-(4-ethynyl-2-fluoro-phenylamino)-4-fluoro-benzamide] | < 1000 |  |
| CN(C)S(=O)(=O)Nc1cccc(Oc2cc(F)cc(Nc3ccc(I)cc3F)c2C(N)=O)c1 [Example 3.2, 2-[3-[[(dimethylamino)sulfonyl]amino]phenoxy]-4-fluoro-6-[(2-fluoro-4-iodophenyl)amino]-benzamide] | < 250 |  |
| NC(=O)c1c(Nc2ccc(I)cc2)cc(F)cc1OCC[C@@H](O)CO [Example 8.5, 2-((R)-3,4-Dihydroxy-butoxy)-4-fluoro-6-(4-iodo-phenylamino)-benzamide] | < 1000 |  |
| NC[C@H](O)CCOc1cc(F)cc(Nc2ccc(I)cc2F)c1C(N)=O [Example 10.3, 2-((R)-4-Amino-3-hydroxy-butoxy)-4-fluoro-6-(2-fluoro-4-iodo-phenylamino)-benzamide] | < 250 |  |
